Results as given in patent US8785481B2, “Ether benzotriazole derivatives” (Merck Sharp & Dohme Corp., priority 2010, dated 2014).

Target: T1, recombinant human mGluR2 (Homo sapiens, UniProt Q14416)
T1 construct: expressed in transfected cells
Assay: FLIPR Ca2+ mobilization assay, potentiation of glutamate (EC20) response
Type: cell-based
Conditions: CHO dhfr- cells expressing human mGluR2 and Gα16, EC20 glutamate (900 nM)
Procedure: Potencies are determined as follows. The compounds of the present invention may be tested in a fluorescence laser imaging plate reader (FLIPR) based assay. This assay is a common functional assay to monitor Ca^2+ mobilization in whole cells expressing recombinant receptor coupled with a promiscuous G-protein. CHO dhfr- cells stably expressing recombinant human mGluR2 and Gα16 loaded with Fluo-4 AM (Invitrogen, Carlsbad Calif.) are treated with varying concentrations of compounds and the Ca^2+ response is monitored on a FLIPR384 (Molecular Devices, Sunnydale Calif.) for agonist activity. The potentiation response is monitored after a subsequent addition of an EC20 concentration of glutamate (900 nM). The maximum calcium response at each concentration of compound for agonism or potentiation are plotted as dose responses curves fitted with a four parameters logistic equation giving EC50 and Hill coefficient using the iterative non linear curve fitting software program.

T1 sequence (Q14416 19-872): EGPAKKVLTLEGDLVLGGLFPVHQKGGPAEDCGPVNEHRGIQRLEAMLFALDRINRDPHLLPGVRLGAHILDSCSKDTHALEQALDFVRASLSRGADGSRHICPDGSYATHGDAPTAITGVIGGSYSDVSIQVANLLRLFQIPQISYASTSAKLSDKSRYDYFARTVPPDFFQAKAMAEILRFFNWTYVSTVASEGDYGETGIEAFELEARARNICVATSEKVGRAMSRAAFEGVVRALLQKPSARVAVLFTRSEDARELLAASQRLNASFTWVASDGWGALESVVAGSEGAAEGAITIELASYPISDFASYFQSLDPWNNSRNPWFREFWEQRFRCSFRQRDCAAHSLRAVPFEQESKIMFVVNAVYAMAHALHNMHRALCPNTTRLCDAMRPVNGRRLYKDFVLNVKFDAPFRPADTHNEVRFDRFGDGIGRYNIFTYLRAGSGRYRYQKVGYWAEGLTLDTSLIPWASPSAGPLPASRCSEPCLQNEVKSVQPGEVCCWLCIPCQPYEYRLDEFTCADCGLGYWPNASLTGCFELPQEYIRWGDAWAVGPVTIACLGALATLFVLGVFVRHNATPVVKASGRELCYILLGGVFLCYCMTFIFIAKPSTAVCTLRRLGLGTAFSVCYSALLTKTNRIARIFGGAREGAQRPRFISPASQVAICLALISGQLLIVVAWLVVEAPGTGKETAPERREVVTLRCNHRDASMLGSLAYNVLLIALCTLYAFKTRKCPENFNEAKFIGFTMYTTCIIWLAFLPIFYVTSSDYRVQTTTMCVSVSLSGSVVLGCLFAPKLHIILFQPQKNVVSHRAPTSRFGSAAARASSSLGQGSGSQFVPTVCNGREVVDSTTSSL

SMILES	EC50 [nM]
CC(C)(C)C(O)COc1ccc2c(nnn2CC2CC2)c1Br (racemic) [Example 8-1, (±)-1-{[4-Bromo-1-(cyclopropylmethyl)-1H-benzotriazol-5-yl]oxy}-3,3-dimethylbutan-2-ol]	72
COc1ccc2c(nnn2CC2CCCC2)c1Br [Example 1-3, 4-bromo-1-(cyclopentylmethyl)-5-methoxy-1H-benzotriazole]	93
CCOc1ccc2c(nnn2CC(C)(C)C)c1Br [Example 1-4, 4-bromo-1-(2,2-dimethylpropyl)-5-ethoxy-1H-benzotriazole]	32
COc1ccc2c(nnn2CCCC(F)(F)F)c1Br [Example 1-11, 4-bromo-5-methoxy-1-(4,4,4-trifluorobutyl)-1H-benzotriazole]	51
CC(C)[C@@H](C)n1nnc2c(Br)c(O)c(Br)cc21 [Example 2-4, 4,6-dibromo-1-[(1R)-1,2-dimethylpropyl]-1H-benzotriazol-5-ol]	373
CC(C)(C)Cn1nnc2c(Br)c(OCc3cccc(-c4ccc(O)c(C(=O)O)c4)c3)ccc21 [Example 3-3, 3′-({[4-bromo-1-(2,2-dimethylpropyl)-1H-benzotriazol-5-yl]oxy}methyl)-4-hydroxy-biphenyl-3-carboxylic acid]	3.5
CC(Oc1ccc2c(nnn2CC(C)(C)C)c1Br)c1ccccc1 (centres unmarked) [Example 3-15, 4-bromo-1-(2,2-dimethylpropyl)-5-(1-phenylethoxy)-1H-benzotriazole]	91
Cc1cnc(C#N)c(-c2cccc(COc3ccc4c(nnn4CC(C)(C)C)c3Br)c2)c1 [Example 3-26, 3-[3-({[4-bromo-1-(2,2-dimethylpropyl)-1H-benzotriazol-5-yl]oxy}methyl)phenyl]-5-methylpyridine-2-carbonitrile]	16
CC(C)(C)Cn1nnc2c(Br)c(OCc3cccc(-c4c[nH]nc4C#N)c3)ccc21 [Example 3-34, 4-[3-({[4-bromo-1-(2,2-dimethylpropyl)-1H-benzotriazol-5-yl]oxy}methyl)phenyl]-1H-pyrazole-3-carbonitrile]	49
CC(C)(C)Cn1nnc2c(Br)c(OCc3cccc4ccnn34)ccc21 [Example 4-5, 4-bromo-1-(2,2-dimethylpropyl)-5-(pyrazolo[1,5-a]pyridin-7-ylmethoxy)-1H-benzotriazole]	42
CC(C)(C)Cn1nnc2c(Br)c(OCc3ncccn3)ccc21 [Example 4-7, 4-bromo-1-(2,2-dimethyl-propyl)-5-(pyrimidin-2-ylmethoxy)-1H-benzotriazole]	521
CC(C)(C)Cn1nnc2c(Br)c(OCc3cccc(N4CCCCC4)n3)ccc21 [Example 4-27, 4-bromo-1-(2,2-dimethylpropyl)-5-[(6-piperidin-1-ylpyridin-2-yl)methoxy]-1H-benzotriazole]	288
CC(C)(C)Cn1nnc2c(Br)c(OCc3ncccc3F)ccc21 [Example 4-42, 4-bromo-1-(2,2-dimethyl-propyl)-5-[(3-fluoropyridin-2-yl)methoxy]-1H-benzotriazole]	41
CC(C)(C)Cn1nnc2c(Br)c(OCc3ccccc3Cl)ccc21 [Example 4-45, 4-bromo-5-[(2-chlorobenzyl)oxy]-1-(2,2-dimethylpropyl)-1H-benzotriazole]	65
CC(C)(C)OC(=O)N1CCC(COc2ccc3c(nnn3CC3CC3)c2Cl)CC1 [Example 4-63, tert-butyl 4-({[4-chloro-1-(cyclopropylmethyl)-1H-benzotriazol-5-yl]oxy}methyl) piperidine-1-carboxylate]	34
C[C@H](O)C(=O)N1CCC(COc2ccc3c(nnn3CC3CC3)c2Br)CC1 [Example 4-65, (2S)-1-[4-({[4-bromo-1-(cyclopropylmethyl)-1H-benzotriazol-5-yl]oxy}methyl)piperidin-1-yl]-1-oxopropan-2-ol]	188

SMILES	EC50 [nM]
CC(C)(C)OC(=O)N1CCC(COc2ccc3c(nnn3CC3CC3)c2Br)C1 (centres unmarked) [Example 4-67, tert-butyl 3-({[4-bromo-1-(cyclopropylmethyl)-1H-benzotriazol-5-yl]oxy}methyl) pyrrolidine-1-carboxylate]	20
CC1(COc2ccc3c(nnn3CC3CC3)c2C(F)(F)F)CCN(C(=O)CO)CC1 [Example 4-79, 2-[4-({[1-(cyclopropylmethyl)-4-(trifluoromethyl)-1H-benzotriazol-5-yl]oxy}methyl)-4-methyl-piperidin-1-yl]-2-oxoethanol]	7
N#CCOc1ccc2c(nnn2CC2CC2)c1Br [Example 5-1, {[4-Bromo-1-(cyclopropylmethyl)-1H-benzotriazol-5-yl]oxy}acetonitrile]	281
COc1cccc(COc2ccc3c(nnn3CC3CC3)c2Br)n1 [Example 6-1, 4-Bromo-1-(cyclopropylmethyl)-5-[(6-methoxypyridin-2-yl)methoxy]-1H-benzotriazole]	10
CC(C)(C)C(=O)COc1ccc2c(nnn2CC2CC2)c1Br [Example 7-1, 1-{[4-Bromo-1-(cyclopropylmethyl)-1H-benzotriazol-5-yl]oxy}-3,3-dimethylbutan-2-one]	34
CC(C)(C)/C(COc1ccc2c(nnn2CC2CC2)c1Br)=N/O [Example 9-1, 1-{[4-Bromo-1-(cyclopropylmethyl)-1H-benzotriazol-5-yl]oxy}-N-hydroxy-3,3-dimethylbutan-2-imine]	84
FC(F)CN1CCC(Oc2ccc3c(nnn3CC3CC3)c2Br)CC1 [Example 10-47, 4-bromo-1-(cyclopropylmethyl)-5-{[1-(2,2-difluoroethyl)piperidin-4-yl]oxy}-1H-benzotriazole]	424
Brc1c(OCc2cscn2)ccc2c1nnn2CC1CC1 [Example 10-56, 4-bromo-1-(cyclopropylmethyl)-5-(1,3-thiazol-4-ylmethoxy)-1H-benzotriazole]	150
Brc1c(OCC2COCCO2)ccc2c1nnn2CC1CC1 (centres unmarked) [Example 10-73, 4-bromo-1-(cyclopropylmethyl)-5-(1,4-dioxan-2-ylmethoxy)-1H-benzotriazole]	415
C=CCOc1ccc2c(nnn2CC2CC2)c1Br [Example 10-120, 4-bromo-1-(cyclopropylmethyl)-5-(prop-2-en-1-yloxy)-1H-benzotriazole]	60
Brc1c(OCC2CCC2)ccc2c1nnn2CC1CC1 [Example 10-140, 4-bromo-5-(cyclobutylmethoxy)-1-(cyclopropylmethyl)-1H-benzotriazole]	39
O=C1CCC(Oc2ccc3c(nnn3CC3CC3)c2Br)CC12CC2 (centres unmarked) [Example 10-171, 7-{[4-bromo-1-(cyclopropyl-methyl)-1H-benzotriazol-5-yl]oxy}spiro[2.5]octan-4-one]	87
FC(F)(F)CN1CCN(CCOc2ccc3c(nnn3CC3CC3)c2Br)CC1 [Example 10-220, 4-bromo-1-(cyclopropylmethyl)-5-{2-[4-(2,2,2-trifluoroethyl)piperazin-1-yl]ethoxy}-1H-benzotriazole]	222
CCOc1ccc2c(nnn2CC2CC2)c1Br [Example 10-253, 4-bromo-1-(cyclopropylmethyl)-5-ethoxy-1H-benzotriazole]	530
Brc1c(OCCn2cccn2)ccc2c1nnn2CC1CC1 [Example 10-275, 4-bromo-1-(cyclopropylmethyl)-5-[2-(1H-pyrazol-1-yl)ethoxy]-1H-benzotriazole]	214
FC(F)(F)c1c(OCc2ccccc2)ccc2c1nnn2CC1CC1 [Example 11-1, 5-(Benzyloxy)-1-(cyclopropylmethyl)-4-(trifluoromethyl)-1H-benzotriazole]	9
